What was measured:
Assay type in all cases: cell-based, Pseudomonas aeruginosa
[1] = system: WT P. aeruginosa PAO1; assay: Checkerboard combination study / MIC; conditions: for MIC of antibiotic + Compound 2 in PAO1 / fold change of MIC + Compound 2 in PAO1: + compound 2 ≤8.7 μM; for MIC: Pseudomonas aeruginosa, PAO1, 18 h, WT PAO1 (Table 2), read-out: MIC alone; for MIC / MIC of antibiotic alone in PAO1: antibiotic alone; for FICI in the presence of ≤10 μM of 1: antibiotic + compound 1; for FICI in the presence of ≤10 μM of 1 / MIC of Antibiotics in the presence of ≤10 μM of 1 / FICI in the presence of ≤10 μM of 2 / MIC of Antibiotics in the presence of ≤10 μM of 2 / FICI in the presence of ≤10 μM of 3 / MIC of Antibiotics in the presence of ≤10 μM of 3: WT PAO1; for MIC of Antibiotics in the presence of ≤10 μM of 1: antibiotic + compound 1 ≤10 μM; for FICI in the presence of ≤10 μM of 2: antibiotic + compound 2; for MIC of Antibiotics in the presence of ≤10 μM of 2: antibiotic + compound 2 ≤10 μM; for FICI in the presence of ≤10 μM of 3: antibiotic + compound 3; for MIC of Antibiotics in the presence of ≤10 μM of 3: antibiotic + compound 3 ≤10 μM; for MIC of antibiotic alone in PAO1: PAO1 wild-type (Table 4)
[2] = system: PA 100036; assay: Checkerboard combination study / MIC; conditions: for MICCombination (antibiotic): MIC of antibiotic combined with compound 2; for FICI: antibiotic + compound 2; for MICAntibiotic: antibiotic alone; for FICAntibiotic: with compound 2
[3] = system: PA 101885; assay: Checkerboard combination study / MIC; conditions: for MICCombination (antibiotic): MIC of antibiotic combined with compound 2; for FICI: antibiotic + compound 2; for MICAntibiotic: antibiotic alone; for FICAntibiotic: with compound 2
[4] = system: PA 259; assay: Checkerboard combination study / MIC; conditions: for MICAntibiotic: antibiotic alone
[5] = system: PA 260; assay: Checkerboard combination study / MIC; conditions: for MICCombination (antibiotic): MIC of antibiotic combined with compound 2; for FICI: antibiotic + compound 2; for MICAntibiotic: antibiotic alone; for FICAntibiotic: with compound 2
[6] = system: PA 262; assay: Checkerboard combination study / MIC; conditions: for MICCombination (antibiotic): MIC of antibiotic combined with compound 2; for FICI: antibiotic + compound 2; for MICAntibiotic: antibiotic alone; for FICAntibiotic: with compound 2
[7] = system: PA 264; assay: Checkerboard combination study / MIC; conditions: for MICCombination (antibiotic): MIC of antibiotic combined with compound 2; for FICI: antibiotic + compound 2; for MICAntibiotic: antibiotic alone; for FICAntibiotic: with compound 2
[8] = system: PA 91433; assay: Checkerboard combination study / MIC; conditions: PA 91433
[9] = system: PA 101243; assay: Checkerboard combination study / MIC; conditions: PA 101243; for MICCombination (antibiotic): MIC of antibiotic combined with compound 2; for FICI: antibiotic + compound 2; for MICAntibiotic: antibiotic alone; for FICAntibiotic: with compound 2
[10] = system: PA 114228; assay: Checkerboard combination study / MIC; conditions: for MICCombination (antibiotic): MIC of antibiotic combined with compound 2; for FICI: antibiotic + compound 2; for MICAntibiotic: antibiotic alone; for FICAntibiotic: with compound 2
[11] = system: PAO200; conditions: for MIC of antibiotic + Compound 2 in PAO200 / fold change of MIC + Compound 2 in PAO200: + compound 2 ≤8.7 μM; for MIC of antibiotic alone in PAO200: PAO200 efflux-deficient
Description: (§1) PAO200 is a tnexA-rnexB-oprM deletion strain while PAO750 lacks five important RND pumps (McxAB-OprM, MexCD-OprJ, MexEF-OprN, Mex JK, and MexXY) and the outer membrane protein OpmH (46, 47). Some of these pumps are homologues of broad substrate specificities that extrude different classes of antimicrobial agents and confer resistance on P. aeruginosa (48).
(§2) Antimicrobial Susceptibility Assay. The in vitro antimicrobial activity of all compounds/antibiotics against a panel of bacteria was evaluated by microbroth dilution method in accordance with the Clinical and Laboratory Standards Institute (CLSI) guidelines. Overnight grown bacterial cultures were diluted in saline to achieve a 0.5 McFarland turbidity, followed by 1:50 dilution in Mueller-Hinton broth (MHB) for inoculation to a final concentration of approximately 5×10^5CFU/mL. The antimicrobial agents were 2-fold serially diluted in MHB in a 96-well plate and incubated at 37° C. with equal volumes of inoculum for 18 h. The lowest concentration that prevented the visible growth of bacteria was defined as the MIC for each antimicrobial agent. The broth with or without bacterial cells was used as positive or negative control, respectively.
(§3) Checkerboard Assay. Combination studies with different antibiotics were performed in 96-well plates as previously described (22). Briefly, the antibiotic of interest was serially diluted in MHB along the abscissa while the adjuvant (newly synthesized conjugates) was serially diluted in MHB along the ordinate. This creates a 10×7 matrix wherein each well consists of a combination of different antibiotic and adjuvant concentrations. Overnight grown bacterial cultures were diluted in saline to achieve a 0.5 McFarland turbidity, followed by 1:50 dilution in Mueller-Hinton broth (MHB) for inoculation to a final concentration of approximately 5×10^5CFU/mL. Equal volume of this bacterial culture was then added to each well and incubated at 37° C. for 18 h. After incubation, the plates were read on EMax® Plus microplate reader (Molecular Devices, Sunnyvale, Calif., USA) at 590 nm. MIC was recorded as wells with the lowest concentration of drugs with no bacterial growth. The fractional inhibitory concentration (FIC) for each antibiotic was calculated by dividing the MIC of the antibiotic in the presence of adjuvant by the MIC of the antibiotic alone. Similarly, the FIC of adjuvant was calculated by dividing the MIC of the adjuvant in the presence of antibiotic by the MIC of the adjuvant alone. FIC index is the sum of both FICs. FIC indices of <0.5 were deemed synergistic; 0.5-4, no interaction; and >4, antagonistic.

[12] = system: PAO750; conditions: for MIC of antibiotic + Compound 2 in PAO750 / fold change of MIC + Compound 2 in PAO750: + compound 2 ≤8.7 μM; for MIC of antibiotic alone in PAO750: PAO750 efflux-deficient
Description: as §1, §2, §3

[13] = system: MDR/XDR P. aeruginosa clinical isolates; assay: MIC and checkerboard, panel of clinical isolates; conditions: antibiotic + compound 2 (8.7 μM); resistant P. aeruginosa isolates
[14] = MIC of antibiotic combined with compound 2

## C[C@@H](O)[C@H]1C(=O)N2C(C(=O)O)=C(S[C@@H]3CN[C@H](CNS(N)(=O)=O)C3)[C@H](C)[C@H]12 [Doripenem]
[1]
  MIC of antibiotic + Compound 2 in PAO1: 0.5 µg/mL
  fold change of MIC + Compound 2 in PAO1: 2
  MIC: 1 µg/mL
  FICI in the presence of ≤10 μM of 1: 0.51
  MIC of Antibiotics in the presence of ≤10 μM of 1: 0.5 µg/mL
  FICI in the presence of ≤10 μM of 2: 0.50
  MIC of Antibiotics in the presence of ≤10 μM of 2: 0.5 µg/mL
  FICI in the presence of ≤10 μM of 3: 0.50
  MIC of Antibiotics in the presence of ≤10 μM of 3: 0.5 µg/mL
  MIC of antibiotic alone in PAO1: 1 µg/mL
[2]
  MICCombination (antibiotic): 8 µg/mL
  FICI: <0.56
  MICAntibiotic: 16 µg/mL
  FICAntibiotic: 0.500
[3]
  MICCombination (antibiotic): 1 µg/mL
  FICI: <0.27
  MICAntibiotic: 4 µg/mL
  FICAntibiotic: 0.250
[4]
  MICAntibiotic: >1024 µg/mL
[5]
  MICCombination (antibiotic): 8 µg/mL
  FICI: <0.53
  MICAntibiotic: 16 µg/mL
  FICAntibiotic: 0.500
[6]
  MICCombination (antibiotic): 4 µg/mL
  FICI: <0.31
  MICAntibiotic: 16 µg/mL
  FICAntibiotic: 0.250
[7]
  MICCombination (antibiotic): 8 µg/mL
  FICI: <0.51
  MICAntibiotic: 16 µg/mL
  FICAntibiotic: 0.500
[8]; [14]
  MICCombination (antibiotic): 1 µg/mL
[8]; antibiotic + compound 2
  FICI: <0.09
[8]; antibiotic alone
  MICAntibiotic: 16 µg/mL
[8]; with compound 2
  FICAntibiotic: 0.063
[9]
  MICCombination (antibiotic): 8 µg/mL
  FICI: <0.50
  MICAntibiotic: 16 µg/mL
  FICAntibiotic: 0.500
[10]
  MICCombination (antibiotic): 1 µg/mL
  FICI: <0.14
  MICAntibiotic: 8 µg/mL
  FICAntibiotic: 0.125
[11]
  MIC of antibiotic + Compound 2 in PAO200: 0.25 µg/mL
  fold change of MIC + Compound 2 in PAO200: 4
  MIC of antibiotic alone in PAO200: 1 µg/mL
[12]
  MIC of antibiotic + Compound 2 in PAO750: 0.25 µg/mL
  fold change of MIC + Compound 2 in PAO750: 4
  MIC of antibiotic alone in PAO750: 1 µg/mL
[13]
  resistant isolates reaching CLSI clinical breakpoint: three out of nine

## CCN1CCN(C(=O)N[C@@H](C(=O)N[C@@H]2C(=O)N3[C@@H]2SC(C)(C)[C@@H]3C(=O)O)c2ccccc2)C(=O)C1=O [Piperacillin]
[1]
  MIC of antibiotic + Compound 2 in PAO1: 2 µg/mL
  fold change of MIC + Compound 2 in PAO1: 4
  MIC: 8 µg/mL
  FICI in the presence of ≤10 μM of 1: 0.26
  MIC of Antibiotics in the presence of ≤10 μM of 1: 2 µg/mL
  FICI in the presence of ≤10 μM of 2: 0.25
  MIC of Antibiotics in the presence of ≤10 μM of 2: 2 µg/mL
  FICI in the presence of ≤10 μM of 3: 0.25
  MIC of Antibiotics in the presence of ≤10 μM of 3: 2 µg/mL
  MIC of antibiotic alone in PAO1: 8 µg/mL
[2]
  MICCombination (antibiotic): 64 µg/mL
  FICI: <1.06
  MICAntibiotic: 64 µg/mL
  FICAntibiotic: 1.000
[3]
  MICCombination (antibiotic): 4 µg/mL
  FICI: <0.31
  MICAntibiotic: 16 µg/mL
  FICAntibiotic: 0.250
[4]; [14]
  MICCombination (antibiotic): 256 µg/mL
[4]; antibiotic + compound 2
  FICI: <0.50
[4]
  MICAntibiotic: 512 µg/mL
[4]; with compound 2
  FICAntibiotic: 0.500
[5]
  MICCombination (antibiotic): 512 µg/mL
  FICI: <1.06
  MICAntibiotic: 512 µg/mL
  FICAntibiotic: 1.000
[6]
  MICCombination (antibiotic): 512 µg/mL
  FICI: <0.52
  MICAntibiotic: 1024 µg/mL
  FICAntibiotic: 0.500
[7]
  MICCombination (antibiotic): 1024 µg/mL
  FICI: <0.52
  MICAntibiotic: 2048 µg/mL
  FICAntibiotic: 0.500
[9]
  MICCombination (antibiotic): 128 µg/mL
  FICI: <1.06
  MICAntibiotic: 128 µg/mL
  FICAntibiotic: 1.000
[10]
  MICCombination (antibiotic): 8 µg/mL
  FICI: <0.50
  MICAntibiotic: 16 µg/mL
  FICAntibiotic: 0.500
[11]
  MIC of antibiotic + Compound 2 in PAO200: 1 (1) μg/ml
  fold change of MIC + Compound 2 in PAO200: 1 (1)
  MIC of antibiotic alone in PAO200: 1 µg/mL
[12]
  MIC of antibiotic + Compound 2 in PAO750: 0.5 µg/mL
  fold change of MIC + Compound 2 in PAO750: 4
  MIC of antibiotic alone in PAO750: 2 µg/mL
[13]
  resistant isolates reaching CLSI clinical breakpoint: zero out of six

Source: patent US20210290648A1, “Potentiation of B-Lactam Antibiotics and B-Lactam/B-Lactamase Inhibitor Combinations Against Multidrug and Extensively Drug-Resistant Pseudomonas Aeruginosa Using Non-Ribosomal Tobramycin-Cyclam Conjugates” (University of Manitoba, priority 2018, published 2021)
